Patent publication US7301005B2, “Immunomodulatory peptides derived from heat shock proteins and uses thereof” (priority 2000, dated 2007)
Marks after values point to notes of the source that are not given here.

Experiments:
Assay type in all cases: cell-based, human
[1] = system: SFMC from patients with oJIA; test: Proliferative response of SFMC incubated with dnaJ and restimulated with autologous feeder cells plus peptide; conditions: for SI: Table 3, dnaJ 72 hr then restimulated with peptide, mean+SD
Protocol: Results, expressed as stimulation index (SI), are shown as mean+SD.
In order to identify possible relevant epitopes on the bacterial dnaJ protein, PBMC and SFMC of patients with oJIA were incubated for 72 hr with dnaJ, and restimulated with autologous feeder cells the in presence or absence of selected E. coli derived MHC class II binder peptides for 96 hr.
(§1) In order to evaluate whether human homologous peptides could be the target of cross-recognition leading to self reactivity, human peptides derived from regions of HSJ1, HDJ1, or HDJ2 having sequence homology with E. coli dnaJ were studied. SFMC of 14 patients with oJIA presenting a SI to the recombinant E. coli hsp dnaJ greater than 3 were restimulated for 96 hr with autologous cells in presence or absence of human peptide 2, 3, or 5, which are homologs of bacterial peptide 4; human peptide 20, 21, or 23, which are homologs of bacterial peptide 22; or human peptide 164, 167, or 176, which are homologs of bacterial peptide 174. SFMC proliferative responses, pro-inflammatory cytokine production, and anti-inflammatory IL-4 levels were overall similar between the peptides derived from human dnaJ proteins and the homologous bacterial peptides.
Results are expressed as SI or pg/ml (mean+SD). […]
To explore the possible correlation of clinical features with the development of peptide-induced immune modulation, oJIA patients were grouped according to the course of disease, including those with persistent disease (n=16), and those with extended disease (n=15) o-JIA. (FIG. 25).

[2] = system: SFMC from patients with oJIA; test: Cytokine production in culture supernatants of SFMC incubated with dnaJ and restimulated with autologous feeder cells plus peptide; conditions: for IFNγ / IL-6 / TNFα / IL-4 / IL-10: mean+SD; for production of IL-10 in patients with extended oligoarthritis: three patients with extended oligoarthritis at sampling; for IL-10 production detectable or not: culture supernatants of SFMC
Text: Results are expressed as pg/ml (mean+SD).
Cytokine production to the same peptides was examined in culture supernatants of SFMC from patients with oJIA. […] SFMC from only one of 21 patients with oJIA produced detectable levels of the anti-inflammatory cytokine IL-10, and none produced detectable levels of IL-4.
as §1
Results are expressed as SI or pg/ml (mean+SD).

[3] = system: peripheral blood mononuclear cells (PBMC); test: Proliferative response (stimulation index) of PBMC stimulated with antigen for 96 hr; conditions: PBMC
[4] = system: synovial fluid mononuclear cells (SFMC) from patients with oJIA; test: Proliferative response (stimulation index) of SFMC stimulated with antigen for 96 hr; conditions: SFMC
[5] = Table 3, dnaJ 72 hr then restimulated with peptide
[6] = Table 1, dnaJ 72 hr then restimulated with peptide 72 hr

Substance	SI [1]	IFNγ [2, 5]	IL-6 [2, 5]	TNFα [2, 5]	IFNγ [2, 6] [pg/mL]	IL-4 [2, 6] [pg/mL]	IL-6 [2, 6] [pg/mL]	IL-10 [2, 6] [pg/mL]	TNFα [2, 6] [pg/mL]	further results
ASYYEILDVPRSASA (listed as Homo sapiens) [Peptide 2, human HSJ1 peptide, homologue of bacterial dnaJ peptide 4]	5.9 + 5.7	51.3 + 72.4 pg/ml	41.7 + 43.8 pg/ml	23.2 + 26.8 pg/ml	–	–	–	–	–	–
DLQLAMAYSLSEMEA (listed as Homo sapiens) [Peptide 254, non-homologous human peptide (HSJ1)]	–	–	–	–	–	–	–	–	–	production of IL-10 in patients with extended oligoarthritis [2]: reduced production of IL-10
EDLFMCMDIQLVEAL (listed as Homo sapiens) [Peptide 256, non-homologous human peptide (HDJ2)]	–	–	–	–	–	–	–	–	–	production of IL-10 in patients with extended oligoarthritis [2]: reduced production of IL-10
FRSVSTSTTFVQGRR (listed as Homo sapiens) [Peptide 164, human HSJ1 peptide, homologue of bacterial dnaJ peptide 174]	4.2 + 4.0	52.5 + 85.2 pg/ml	27.3 + 31.3 pg/ml	13.5 + 18.9 pg/ml	–	–	–	–	–	–
GDLYVQVQVKQHPIF (listed as Escherichia coli) [Peptide 242, bacterial (E. coli) dnaJ peptide]	–	–	–	–	41.2 ± 48.8	<0.39	34.1 ± 41.7	5.3 ± 6.6	14.2 ± 29.2	–
GRRITTRRIMENGQE (listed as Homo sapiens) [Peptide 176, human HSJ1 peptide, homologue of bacterial dnaJ peptide 174]	4.3 + 2.7	45.6 + 68.3 pg/ml	21.2 + 25.2 pg/ml	8.9 + 10.3 pg/ml	–	–	–	–	–	–
KDYYQTLGLARGASD (listed as Homo sapiens) [Peptide 3, human HDJ1 peptide, homologue of bacterial dnaJ peptide 4]	8.0 + 7.5	57.5 + 85.7 pg/ml	114.0 + 126 pg/ml	10.3 + 9.9 pg/ml	–	–	–	–	–	–
KKAYRKLALKYHPDK (listed as Homo sapiens) [Peptide 23, human HDJ2 peptide, homologue of bacterial dnaJ peptide 22]	4.7 + 4.0	38.2 + 75 pg/ml	33.3 + 32.7 pg/ml	7.7 + 7.6 pg/ml	–	–	–	–	–	IL-10 production detectable or not [2]: did not induce detectable levels of IL-10
KKAYRRKALQWHPDK (listed as Homo sapiens) [Peptide 20, human HSJ1 peptide, homologue of bacterial dnaJ peptide 22]	4.7 + 4.7	25.3 + 47.4 pg/ml	33.0 + 34.0 pg/ml	11.8 + 11.2 pg/ml	–	–	–	–	–	IL-10 production detectable or not [2]: did not induce detectable levels of IL-10
KRAYRRQALRYHPDK (listed as Homo sapiens) [Peptide 21, human HDJ1 peptide, homologue of bacterial dnaJ peptide 22]	4.6 + 4.2	30.8 + 56.4 pg/ml	33.5 + 43.8 pg/ml	26.6 + 39.3 pg/ml	–	–	–	–	–	IL-10 production detectable or not [2]: did not induce detectable levels of IL-10
PGMVQQIQSVCMECQ (listed as Homo sapiens) [Peptide 167, human HDJ2 peptide, homologue of bacterial dnaJ peptide 174]	3.9 + 3.1	38.3 + 61.2 pg/ml	23.0 + 22.3 pg/ml	7.3 + 7.3 pg/ml	–	–	–	–	–	–
PINFAMAALGGEIEV (listed as Escherichia coli) [Peptide 268, bacterial (E. coli) dnaJ peptide]	–	–	–	–	34.7 ± 51.2	<0.39	45 ± 58.4	<3.9	17.2 ± 30.1	–
QAYEVLSDAKKRELYD (listed as Homo sapiens) [Peptide 50, non-homologous human peptide (HDJ2)]	–	–	–	–	–	–	–	–	–	production of IL-10 in patients with extended oligoarthritis [2]: reduced production of IL-10
QDYYEILGVSKTAEE (listed as Escherichia coli) [Peptide 4, bacterial (E. coli) dnaJ peptide]	4.1 + 3.33	30.8 + 52.4 pg/ml	60.2 + 60.3 pg/ml	6.0 + 4.5 pg/ml	38.5 ± 47.7	<0.39	49.8 ± 54.0	5.4 ± 6.9	9.8 ± 21.2	–
QGFFAVQQTCPHCQG (listed as Escherichia coli) [Peptide 174, bacterial (E. coli) dnaJ peptide]	5.9 + 7.5	31.4 + 53.1 pg/ml	56.4 + 70 pg/ml	16.1 + 30.9 pg/ml	29.8 ± 44.6	<0.39	47.3 ± 61.2	4.2 ± 1.9	16.1 ± 31.5	–
QKRAAYDQYGHAAFEQ (listed as Escherichia coli) [Peptide 61, bacterial (E. coli) dnaJ peptide]	–	–	–	–	31 ± 45.7	<0.39	47.6 ± 70.5	<3.9	22.6 ± 35.3	–
RKAYKRLAMKYHPDR (listed as Escherichia coli) [Peptide 22, bacterial (E. coli) dnaJ peptide]	4.7 + 4.0	20.1 + 33.5 pg/ml	54.3 + 69.0 pg/ml	10.5 + 23.1 pg/ml	27 ± 38.0	<0.39	45.7 ± 57.7	4.4 ± 2.7	14.1 ± 26.8	IL-10 production detectable or not [2]: did not induce detectable levels of IL-10
RTIVITSHPGQIVKH (listed as Homo sapiens) [Peptide 283, non-homologous human peptide (HDJ2)]	–	–	–	–	–	–	–	–	–	production of IL-10 in patients with extended oligoarthritis [2]: reduced production of IL-10
SKTLSVKIPGAVDTG (listed as Escherichia coli) [Peptide 209, bacterial (E. coli) dnaJ peptide]	–	–	–	–	41.3 ± 46.9	<0.39	56.6 ± 65.9	6.2 ± 5.8	15.3 ± 29.2	–
TTYYDVLGVKPNATQ (listed as Homo sapiens) [Peptide 5, human HDJ2 peptide, homologue of bacterial dnaJ peptide 4]	8.2 + 7.3*	69.5 + 105.2@ pg/ml	60.0 + 67.2 pg/ml	18.9 + 16.9 pg/ml	–	–	–	–	–	proliferative response compared with bacterial homolog ([1]; p<0.03): significantly greater; IFNγ production compared with bacterial homolog ([2]; p<0.05): significantly greater
YCEVPTNFAMAALGG [Peptide 264]	–	–	–	–	44.9 ± 55.8	<0.39	47.4 ± 61.2	<3.9	14.0 ± 29.3	–
tetanus toxoid [TT, reference compound]	–	–	–	–	–	–	–	–	–	median SI [3]: 12.3; median SI [4]: 6.0
